This data set in a line: Reference Example 1: bulk powder left in air, residual ratio. In kind it is physicochemical. As to conditions: 40° C. and 75% RH in the air, 1 month. As to the method:
A bulk powder of Compound A and sodium ascorbate were respectively left to stand for 1 month at 40° C. and 75% RH in the air, and then residual ratios thereof were measured. As a result, the residual ratio of Compound A was 89.7% (W/W), and the residual ratio of sodium ascorbate was 99.0% (W/W). Quantification of Compound A was carried out by a HPLC method under the following conditions. Solvent: acetonitrile Measurement wavelength: 287 nm Column: CHIRALCEL OJ-R 4.6 mm×150 mm (manufactured by Daicel Chemical Industries, Ltd.) Mobile phase: mixed solution of acetonitrile/10 mM aqueous ammonium acetate solution (16:9) Oven temperature: around 25° C. Quantification of sodium ascorbate was carried out by an iodine titration technique (solvent: metaphosphoric acid solution (1→50), indicator: starch test solution).

As for `O=C1O[C@H]([C@@H](O)CO)C([O-])=C1O.[Na+]` [sodium ascorbate], the residual ratio is given as 99.0 % (W/W).
On to `COc1cc2c(cc1OC)CN(c1c(C)c(C)c3c(c1C)[C@@H](c1ccc(C)cc1)C(C)(C)O3)C2` [Compound A, (R)-5,6-dimethoxy-2-[2,2,4,6,7-pentamethyl-3-(4-methylphenyl)-2,3-dihydro-1-benzofuran-5-yl]isoindoline], for which the residual ratio was 89.7 % (W/W).

Values taken from US20090030064A1, “Sugar-coated preparation” (Takeda Pharmaceutical Company Limited, priority 2005, published 2009).
